Consider one molecule from PMC10120463 (Journal of Enzyme Inhibition and Medicinal Chemistry, 2023).

The nature of this data set: Haemolysis assay. Type of data set: cell-based. The settings on record: rabbit, rabbit red blood cell suspension.

Molecule `C[C@@H]1[C@H](O)[C@@H](C)/C=C/C=C/C=C/C=C/C=C/C=C/C=C/[C@H](O[C@@H]2O[C@H](C)[C@@H](O)[C@H](N)[C@@H]2O)C[C@@H]2O[C@](O)(C[C@@H](O)C[C@@H](O)[C@H](O)CC[C@@H](O)C[C@@H](O)CC(=O)O[C@H]1C)C[C@H](O)[C@H]2C(=O)O` [AmB, amphotericin B] registered a hemolysis at 1 h, 32 µg/mL of 53.5%.
